The values that follow come from ChEMBL document CHEMBL6134786, “Design and synthesis of novel 8-(azaindolyl)-benzoazepinones as potent and selective ROCK inhibitors” (RSC Med Chem, 2024).

In brackets after ≈: the same amount, converted by molar mass.

The nature of one data set: cells. The settings on record: Homo sapiens, Pulmonary Artery Smooth Muscle Cells, read-out: pEC50 (converted).
A short description of data set [1]: Metabolic stability in rat microsomes assessed as half life. It counts as ADME, Microsome.
Data set [2] is described as follows: Apparent permeability across apical to basolateral side in human Caco-2 cells. It counts as ADME, cell-based.
Data set [3] can be described thus: Kinetic solubility of the compound in PBS at pH 7.2. The settings on record: read-out: Kinetic_solubility. It counts as physicochemical.

For the compound `O=C1Cc2cc(-c3cn[nH]c3)ccc2CCN1c1ccccc1`, the EC50 in the data set “cells” is 398 nM. Turning to `O=C1Cc2cc(-c3ccnc4[nH]ccc34)ccc2CCN1c1ccccc1`, in “cells”, the EC50 was 12.6 nM. Further, in data set [1], the half-life was found to be 18 min. In data set [2], the Papp A→B stood at 26.9 ×10⁻⁶ cm/s. In addition, the solubility kinetic in data set [3] is under 5 µM. As for `O=C1Cc2cc(-c3ncnc4[nH]ccc34)ccc2CCN1c1ccccc1`, in “cells”, the EC50 is 50.1 nM. Same read-out and setting: the same measure for `COc1cccc(N2CCc3ccc(-c4ccnc5[nH]ccc45)cc3CC2=O)c1`: 31.6 nM. Regarding `CN1CCN(CCCOc2cccc(N3CCc4ccc(-c5ccnc6[nH]ccc56)cc4CC3=O)c2)CC1`, the EC50 in “cells” is 5.01 nM. The half-life in data set [1] was 8.4 min. Besides, the Papp A→B in data set [2] is 5.6 ×10⁻⁶ cm/s. As to `O=C1CCc2ccc(-c3ccnc4[nH]ccc34)cc2CN1c1ccccc1`, the solubility kinetic in data set [3] worked out at 131 µM (≈ 46.3 µg/mL). Regarding `Nc1cc(-c2ccc3c(c2)CC(=O)N(c2ccccc2)CC3)ccn1`, the EC50 in “cells” was 316 nM.
